Source: PubChem BioAssay (NCI)
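These data come from cells grown in 96-well plates and exposed to compound for 48 hours at five concentrations. At the GI50, growth is halved. TGI: total growth inhibition.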

Experiments:
Assay in all cases: NCI-60 cell line screen, 48 h
TK-10 renal = test system: TK-10 renal
MALME-3M melanoma = test system: MALME-3M melanoma
RXF 393 renal = test system: RXF 393 renal
SF-268 CNS = test system: SF-268 CNS
HT29 colon = test system: HT29 colon
SNB-19 CNS = test system: SNB-19 CNS
SK-OV-3 ovarian = test system: SK-OV-3 ovarian
NCI/ADR-RES ovarian = test system: NCI/ADR-RES ovarian
U251 CNS = test system: U251 CNS
NCI-H23 lung = test system: NCI-H23 lung
T-47D breast = test system: T-47D breast
SF-539 CNS = test system: SF-539 CNS
PC-3 prostate = test system: PC-3 prostate
ACHN renal = test system: ACHN renal
OVCAR-8 ovarian = test system: OVCAR-8 ovarian
HCT-15 colon = test system: HCT-15 colon
SW-620 colon = test system: SW-620 colon
HL-60(TB) leukemia = test system: HL-60(TB) leukemia
HOP-92 NSCLC = test system: HOP-92 NSCLC
BT-549 breast = test system: BT-549 breast
NCI-H226 lung = test system: NCI-H226 lung
NCI-H460 lung = test system: NCI-H460 lung
SK-MEL-2 melanoma = test system: SK-MEL-2 melanoma
SF-295 CNS = test system: SF-295 CNS
IGROV1 ovarian = test system: IGROV1 ovarian
MCF7 breast = test system: MCF7 breast
CCRF-CEM leukemia = test system: CCRF-CEM leukemia
SK-MEL-5 melanoma = test system: SK-MEL-5 melanoma
COLO 205 colon = test system: COLO 205 colon
UO-31 renal = test system: UO-31 renal
DU-145 prostate = test system: DU-145 prostate
UACC-257 melanoma = test system: UACC-257 melanoma
SK-MEL-28 melanoma = test system: SK-MEL-28 melanoma
RPMI-8226 leukemia = test system: RPMI-8226 leukemia
786-0 renal = test system: 786-0 renal
HS 578T breast = test system: HS 578T breast
OVCAR-4 ovarian = test system: OVCAR-4 ovarian
HOP-62 NSCLC = test system: HOP-62 NSCLC
CAKI-1 renal = test system: CAKI-1 renal
UACC-62 melanoma = test system: UACC-62 melanoma
A549 NSCLC = test system: A549 NSCLC
SNB-75 CNS = test system: SNB-75 CNS
OVCAR-3 ovarian = test system: OVCAR-3 ovarian
NCI-H522 lung = test system: NCI-H522 lung
MDA-MB-435 = test system: MDA-MB-435
OVCAR-5 ovarian = test system: OVCAR-5 ovarian
HCT-116 colon = test system: HCT-116 colon
HCC-2998 colon = test system: HCC-2998 colon
KM12 colon = test system: KM12 colon
SN12C renal = test system: SN12C renal
MDA-MB-231 breast = test system: MDA-MB-231 breast
M14 melanoma = test system: M14 melanoma
LOX IMVI melanoma = test system: LOX IMVI melanoma
A498 renal = test system: A498 renal
EKVX NSCLC = test system: EKVX NSCLC

Compound `Cc1cccc2c(C(=O)O[C@H](C(N)=O)[C@]3(C)CO3)cccc12` has a GI50 (TK-10 renal) of 6.02 µM, a TGI (TK-10 renal) of 33.3 µM and a GI50 (MALME-3M melanoma) of 3.97 µM. For the same compound, the TGI (MALME-3M melanoma) was 10.6 µM, the GI50 (RXF 393 renal) was 3.76 µM and the TGI (RXF 393 renal) was > 100 µM. The GI50 (SF-268 CNS) was 2.3 µM, the TGI (SF-268 CNS) was > 100 µM and the GI50 (HT29 colon) was 0.693 µM. The GI50 (SNB-19 CNS) was 5.23 µM, the TGI (SNB-19 CNS) was > 61.7 µM and the GI50 (SK-OV-3 ovarian) was 7.48 µM. The TGI (SK-OV-3 ovarian) was 24.4 µM, the GI50 (NCI/ADR-RES ovarian) was 0.904 µM and the TGI (NCI/ADR-RES ovarian) was 6.34 µM. It also gave a GI50 (U251 CNS) of 0.69 µM, a TGI (U251 CNS) of 8.07 µM and a GI50 (NCI-H23 lung) of 1.13 µM. For the same compound, the TGI (NCI-H23 lung) was 3.11 µM, the GI50 (T-47D breast) was 2.75 µM and the TGI (T-47D breast) was 15.9 µM. It also gave a GI50 (SF-539 CNS) of 0.496 µM, a TGI (SF-539 CNS) of 1.57 µM and a GI50 (PC-3 prostate) of 1.83 µM. The TGI (PC-3 prostate) was > 22.5 µM, the GI50 (ACHN renal) was 0.302 µM and the TGI (ACHN renal) was 2.67 µM. The GI50 (OVCAR-8 ovarian) was 0.465 µM, the TGI (OVCAR-8 ovarian) was 26.8 µM and the GI50 (HCT-15 colon) was 1.69 µM. The TGI (HCT-15 colon) was 7.7 µM, the GI50 (SW-620 colon) was 0.351 µM and the TGI (SW-620 colon) was > 79.9 µM. The GI50 (HL-60(TB) leukemia) was > 100 µM, the TGI (HL-60(TB) leukemia) was > 100 µM and the GI50 (HOP-92 NSCLC) was 2.28 µM. For the same compound, the TGI (HOP-92 NSCLC) was 11.4 µM, the GI50 (BT-549 breast) was 1.95 µM and the TGI (BT-549 breast) was 6.07 µM. It also gave a GI50 (NCI-H226 lung) of 0.556 µM, a TGI (NCI-H226 lung) of 2.21 µM and a GI50 (NCI-H460 lung) of 4.31 µM. The TGI (NCI-H460 lung) was > 41.5 µM, the GI50 (SK-MEL-2 melanoma) was 1.72 µM and the TGI (SK-MEL-2 melanoma) was 8.96 µM. The GI50 (SF-295 CNS) was 2.11 µM, the TGI (SF-295 CNS) was 19.2 µM and the GI50 (IGROV1 ovarian) was 0.817 µM. The TGI (IGROV1 ovarian) was > 22.4 µM, the GI50 (MCF7 breast) was 0.342 µM and the TGI (MCF7 breast) was > 100 µM. It also gave a GI50 (CCRF-CEM leukemia) of 0.599 µM, a GI50 (SK-MEL-5 melanoma) of 1.23 µM and a TGI (SK-MEL-5 melanoma) of 3.04 µM. The GI50 (COLO 205 colon) was 2.37 µM, the TGI (COLO 205 colon) was 13.4 µM and the GI50 (UO-31 renal) was 1.49 µM. It also gave a TGI (UO-31 renal) of 7.15 µM, a GI50 (DU-145 prostate) of 1.17 µM and a TGI (DU-145 prostate) of 5.89 µM. For the same compound, the GI50 (UACC-257 melanoma) was 4.38 µM, the TGI (UACC-257 melanoma) was > 41.8 µM and the GI50 (SK-MEL-28 melanoma) was 1.91 µM. It also gave a TGI (SK-MEL-28 melanoma) of 5.49 µM, a GI50 (RPMI-8226 leukemia) of 1.71 µM and a GI50 (786-0 renal) of 1.4 µM. The TGI (786-0 renal) was 8.21 µM, the GI50 (HS 578T breast) was 3.52 µM and the TGI (HS 578T breast) was > 26.8 µM. For the same compound, the GI50 (OVCAR-4 ovarian) was 3.39 µM, the TGI (OVCAR-4 ovarian) was > 55.9 µM and the GI50 (HOP-62 NSCLC) was 1.12 µM. The TGI (HOP-62 NSCLC) was 4.66 µM, the GI50 (CAKI-1 renal) was 1.33 µM and the TGI (CAKI-1 renal) was 11.6 µM. It also gave a GI50 (UACC-62 melanoma) of 0.481 µM, a TGI (UACC-62 melanoma) of 1.75 µM and a GI50 (A549 NSCLC) of 3.66 µM. For the same compound, the TGI (A549 NSCLC) was > 100 µM, the GI50 (SNB-75 CNS) was 2.81 µM and the TGI (SNB-75 CNS) was 13.1 µM. The GI50 (OVCAR-3 ovarian) was 2.07 µM, the TGI (OVCAR-3 ovarian) was 13.3 µM and the GI50 (NCI-H522 lung) was 1.39 µM. For the same compound, the TGI (NCI-H522 lung) was 7.82 µM, the GI50 (MDA-MB-435) was 4.75 µM and the TGI (MDA-MB-435) was 26.8 µM. For the same compound, the GI50 (OVCAR-5 ovarian) was 3.12 µM, the TGI (OVCAR-5 ovarian) was > 34.4 µM and the GI50 (HCT-116 colon) was 0.135 µM. For the same compound, the TGI (HCT-116 colon) was 5.51 µM, the GI50 (HCC-2998 colon) was 1.24 µM and the TGI (HCC-2998 colon) was 3.33 µM. The GI50 (KM12 colon) was 6.65 µM, the TGI (KM12 colon) was 42.9 µM and the GI50 (SN12C renal) was 0.271 µM. For the same compound, the TGI (SN12C renal) was 2.58 µM, the GI50 (MDA-MB-231 breast) was 1.99 µM and the TGI (MDA-MB-231 breast) was 6.57 µM. The GI50 (M14 melanoma) was 0.938 µM, the TGI (M14 melanoma) was 2.88 µM and the GI50 (LOX IMVI melanoma) was 0.0926 µM. The TGI (LOX IMVI melanoma) was 1.78 µM, the GI50 (A498 renal) was 13.3 µM and the TGI (A498 renal) was 41.2 µM. It also gave a GI50 (EKVX NSCLC) of 3.93 µM and a TGI (EKVX NSCLC) of 13.5 µM.
